The text below walks through data of US20230124720A1, “APPLICATION OF ACRIDINEDIONE COMPOUND IN PREPARATION OF ANTI-DIABETIC DRUGS” (THE FOURTH MILITARY MEDICAL UNIVERSITY, priority 2020, published 2023).

In data set [1] the target is T1, HEK-293T cells stably overexpressing GPR40 (Homo sapiens, UniProt O14842).
T1 construct: expressed in transfected cells; host or cells: HEK-293T
In words: GPR40 agonistic activity assay (Fluo-4 AM fluorescence, Flexstation). It is filed as cell-based.
Method: There were triplicate wells for each group, and a Flexstation instrument was used for detecting and reading fluorescence values. Each compound dilution concentration was: 200 μmol/L, 100 μmol/L, 50 μmol/L, 10 μmol/L, 5 μmol/L.
EC50 value for each compound was calculated from the measured fluorescence value according to the following formula:
Relative agonism ratio=(fluorescence value of test compound-fluorescence value of negative control)/(fluorescence value of agonist positive control-fluorescence value of negative control)*100%;

Another data set has as its system STZ-induced T2DM rats. Description: Serum lipid metabolism indicators in T2DM rats. It is filed as in vivo, rat. How it is done:
150 male SD rats, housed in cages in a clean constant temperature (23±2° C.) and humidity (55±10%) animal house, were manually adjusted on a daily 12 h/12 h diurnal light cycle with free access to water. After 3 days of adaptive feeding, 150 rats were randomly divided into normal and model groups. The normal (Con, n=15) group of rats remained on raw chow and the model group (n=135) of rats were given high fat high sugar chow. All rats were fed twice daily and the amount of feed was adjusted as needed to ensure adequate feed. After 8 weeks of group feeding, the model group rats were given an intraperitoneal injection of 25 mg/kg STZ solution with a 12 h fast prior to injection. After injection, feeding was continued as in the original method, blood was taken from the tail vein at 72 h for blood glucose measurement, and rats with fasting blood glucose levels ≥11.1 mmol/L on different days were screened for successful artificial induction of T2DM and administered in groups for the next experiment. 135 rats with successful modeling were randomly divided into 9 groups: […] […] Relevant indicators of lipid metabolism were measured after the end of the study.

A further data set concerns MIN6 cells. Description: Cytotoxicity / growth of MIN6 cells (FIG. 1A). It is filed as cell-based, mouse. The settings on record: 100 μmol/L.

T1 sequence (O14842 whole entry): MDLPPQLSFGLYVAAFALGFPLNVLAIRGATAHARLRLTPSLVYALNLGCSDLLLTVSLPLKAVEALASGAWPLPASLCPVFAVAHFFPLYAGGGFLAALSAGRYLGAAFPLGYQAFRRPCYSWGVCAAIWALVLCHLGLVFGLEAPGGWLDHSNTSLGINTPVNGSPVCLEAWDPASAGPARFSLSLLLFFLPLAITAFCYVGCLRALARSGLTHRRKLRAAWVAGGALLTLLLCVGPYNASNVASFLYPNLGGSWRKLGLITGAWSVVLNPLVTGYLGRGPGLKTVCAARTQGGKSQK

Molecule `CC1(C)CC(=O)C2=C(C1)NC1=C(C(=O)CC(C)(C)C1)C2c1ccc(OCc2ccc(C(=O)O)cc2)c(Br)c1` [ADD-16] yielded an EC50 in data set [1] (GPR40 agonism, n = 6) of 12.3 µM. Moreover, the “agonistic activity (in words)” value in data set [1] (among the candidate compounds screened) is reported as “highest agonistic activity”. The “TG, LDL and HDL levels, 10 mg/kg against 3 mg/kg (in words)” value in the data set with STZ-induced T2DM rats (ADD V (10 mg/kg) group) is given as “significantly lower than ADD IV (3 mg/kg) group rats”. For the same molecule, the “serum FFA, TC, TG, LDL and HDL levels (in words)” value in the data set with STZ-induced T2DM rats (four weeks after administration, ADD-16: ADD III-ADD VI groups (1-50 mg/kg), P<0.05) was “significantly decreased”. For the same molecule, in the data set with MIN6 cells, the “effect on MIN6 cell growth (in words)” value is listed as “inhibitory effect on MIN6 cell growth”.

Usually EC50 stands for the concentration needed to bring the measured effect to its halfway point.
